Test results as given in patent US6054435A, “6-O-substituted macrolides having antibacterial activity” (priority 1999, dated 2000).
Converted amounts (≈) assume the structure as drawn.

What was measured:
Assay in all cases: in vitro antibacterial activity (MIC), agar dilution
Format in all cases: cell-based
[1] = tested on: Streptococcus Pneumonia 5979; details: organism code ZZ; BHI agar, 35-37° C., 20 to 24 hours; unit assumed
Description: (§1) Representative compounds of the present invention were assayed in vitro for antibacterial activity as follows: Twelve petri dishes containing successive aqueous dilutions of the test compound mixed with 10 mL of sterilized Brain Heart Infusion (BHI) agar (Difco 0418-01-5) were prepared. Each plate was inoculated with 1:100 (or 1:10 for slow-growing strains, such as Micrococcus and Streptococcus) dilutions of up to 32 different microorganisms, using a Steers replicator block. […] In addition, a control plate, using BHI agar containing no test compound, was prepared and incubated at the beginning and end of each test.
(§2) An additional plate containing a compound having known susceptibility patterns for the organisms being tested and belonging to the same antibiotic class as the test compound was also prepared and incubated as a further control, as well as to provide test-to-test comparability.
(§3) After incubation, each plate was visually inspected. The minimum inhibitory concentration (MIC) was defined as the lowest concentration of drug yielding no growth, a slight haze, or sparsely isolated colonies on the inoculum spot as compared to the growth control.

[2] = tested on: Haemophilis Influenzae DILL AMP R; details: organism code WW; BHI agar, 35-37° C., 20 to 24 hours; unit assumed
Description: as §1, §2, §3

Escherichia coli DC-2 = details: organism code SS; BHI agar, 35-37° C., 20 to 24 hours; unit assumed
Description: as §1, §2, §3

[3] = tested on: Staphylococcus aureus ATCC 6538P; details: organism code AA; BHI agar, 35-37° C., 20 to 24 hours; unit assumed
Description: as §1, §2, §3

[4] = tested on: Streptococcus Pneumonia 5649; details: organism code ZZA; BHI agar, 35-37° C., 20 to 24 hours; unit assumed
Description: as §1, §2, §3

[5] = tested on: Staphylococcus aureus 1775; details: organism code GG; BHI agar, 35-37° C., 20 to 24 hours; unit assumed
Description: as §1, §2, §3

[6] = tested on: Micrococcus luteus ATCC 4698; details: organism code PP; BHI agar, 35-37° C., 20 to 24 hours; unit assumed
Description: as §1, §2, §3

Candida albicans CCH 442 = details: organism code TT; BHI agar, 35-37° C., 20 to 24 hours; unit assumed
Description: as §1, §2, §3

[7] = tested on: Staphylococcus aureus CMX 553; details: organism code FF; BHI agar, 35-37° C., 20 to 24 hours; unit assumed
Description: as §1, §2, §3

[8] = tested on: Streptococcus agalactiae CMX 508; details: organism code KK; BHI agar, 35-37° C., 20 to 24 hours; unit assumed
Description: as §1, §2, §3

[9] = tested on: Nocardia Asteroides ATCC9970; details: organism code VV; BHI agar, 35-37° C., 20 to 24 hours; unit assumed
Description: as §1, §2, §3

[10] = tested on: Streptococcus bovis A-5169; details: organism code JJ; BHI agar, 35-37° C., 20 to 24 hours; unit assumed
Description: as §1, §2, §3

[11] = tested on: Staphylococcus aureus A-5278; details: organism code CC; BHI agar, 35-37° C., 20 to 24 hours; unit assumed
Description: as §1, §2, §3

[12] = tested on: Streptococcus Pneumonia GYR 1171; details: organism code YY; BHI agar, 35-37° C., 20 to 24 hours; unit assumed
Description: as §1, §2, §3

[13] = tested on: Staphylococcus aureus NCTC10649M; details: organism code EE; BHI agar, 35-37° C., 20 to 24 hours; unit assumed
Description: as §1, §2, §3

[14] = tested on: Streptococcus Pneumonia ATCC6303; details: organism code XX; BHI agar, 35-37° C., 20 to 24 hours; unit assumed
Description: as §1, §2, §3

Escherichia coli JUHL = details: organism code QQ; BHI agar, 35-37° C., 20 to 24 hours; unit assumed
Description: as §1, §2, §3

[15] = tested on: Staphylococcus aureus A5177; details: organism code BB; BHI agar, 35-37° C., 20 to 24 hours; unit assumed
Description: as §1, §2, §3

[16] = tested on: Micrococcus luteus ATCC 9341; details: organism code OO; BHI agar, 35-37° C., 20 to 24 hours; unit assumed
Description: as §1, §2, §3

[17] = tested on: Enterococcus faecium ATCC 8043; details: organism code II; BHI agar, 35-37° C., 20 to 24 hours; unit assumed
Description: as §1, §2, §3

[18] = tested on: Staphylococcus aureus CMX 642A; details: organism code DD; BHI agar, 35-37° C., 20 to 24 hours; unit assumed
Description: as §1, §2, §3

[19] = tested on: Streptococcus pyogenes PIU 2548; details: organism code NN; BHI agar, 35-37° C., 20 to 24 hours; unit assumed
Description: as §1, §2, §3

[20] = tested on: Staphylococcus epidermidis 3519; details: organism code HH; BHI agar, 35-37° C., 20 to 24 hours; unit assumed
Description: as §1, §2, §3

Escherichia coli SS = details: organism code RR; BHI agar, 35-37° C., 20 to 24 hours; unit assumed
Description: as §1, §2, §3

[21] = tested on: Streptococcus pyogenes EES61; details: organism code LL; BHI agar, 35-37° C., 20 to 24 hours; unit assumed
Description: as §1, §2, §3

[22] = tested on: Mycobacterium smegmatis ATCC 114; details: organism code UU; BHI agar, 35-37° C., 20 to 24 hours; unit assumed
Description: as §1, §2, §3

[23] = tested on: Streptococcus pyogenes 930; details: organism code MM; BHI agar, 35-37° C., 20 to 24 hours; unit assumed
Description: as §1, §2, §3

Row | SMILES | MIC [1] | MIC (Escherichia coli DC-2) | MIC [3] | MIC [4] | MIC [5] | MIC [6] | MIC (Candida albicans CCH 442) | MIC [7] | MIC [8] | MIC [9] | MIC [10] | MIC [11] | MIC [12] | MIC [13] | MIC [14] | MIC (Escherichia coli JUHL) | MIC [15] | MIC [16] | MIC [17] | MIC [18] | further results
1 | CC[C@H]1OC(=O)[C@H](C)C(=O)[C@H](C)[C@@H](O[C@@H]2O[C@H](C)C[C@H](N(C)C)[C@H]2O)[C@](C)(OC/C=C/c2cnc(-c3ncc(Br)s3)s2)C[C@@H](C)C(=O)[C@H](C)[C@H]2NC(=O)O[C@@]21C [Example 56] | 4 µg/mL (≈ 4.53 µM) | > 100 µg/mL | 0.2 µg/mL (≈ 0.226 µM) | 0.25 µg/mL (≈ 0.283 µM) | 50 µg/mL (≈ 56.6 µM) | 0.39 µg/mL (≈ 0.441 µM) | > 100 µg/mL | 0.2 µg/mL (≈ 0.226 µM) | 0.05 µg/mL (≈ 0.0566 µM) | 0.39 µg/mL (≈ 0.441 µM) | 0.05 µg/mL (≈ 0.0566 µM) | 100 µg/mL (≈ 113 µM) | 0.015 µg/mL (≈ 0.017 µM) | 0.39 µg/mL (≈ 0.441 µM) | 0.015 µg/mL (≈ 0.017 µM) | > 10 µg/mL | 0.2 µg/mL (≈ 0.226 µM) | 0.05 µg/mL (≈ 0.0566 µM) | 0.05 µg/mL (≈ 0.0566 µM) | 0.2 µg/mL (≈ 0.226 µM) | MIC [2]: 8 µg/mL (≈ 9.05 µM); MIC [19]: 0.39 µg/mL (≈ 0.441 µM); MIC [20]: 0.2 µg/mL (≈ 0.226 µM); MIC (Escherichia coli SS): 0.78 µg/mL (≈ 0.882 µM); MIC [21]: 0.05 µg/mL (≈ 0.0566 µM); MIC [22]: 0.39 µg/mL (≈ 0.441 µM)
2 | CC[C@H]1OC(=O)[C@H](C)C(=O)[C@H](C)[C@@H](O[C@@H]2O[C@H](C)C[C@H](N(C)C)[C@H]2O)[C@](C)(OCC#Cc2ccc(-c3cccc(Cl)c3)s2)C[C@@H](C)C(=O)[C@H](C)[C@H]2NC(=O)O[C@@]21C [Example 16] | 2 µg/mL (≈ 2.41 µM) | > 100 µg/mL | 0.1 µg/mL (≈ 0.121 µM) | 0.25 µg/mL (≈ 0.301 µM) | 12.5 µg/mL (≈ 15.1 µM) | 0.2 µg/mL (≈ 0.241 µM) | > 100 µg/mL | 0.2 µg/mL (≈ 0.241 µM) | 0.02 µg/mL (≈ 0.0241 µM) | 0.2 µg/mL (≈ 0.241 µM) | 0.02 µg/mL (≈ 0.0241 µM) | 25 µg/mL (≈ 30.1 µM) | 0.03 µg/mL (≈ 0.0362 µM) | 0.2 µg/mL (≈ 0.241 µM) | 0.03 µg/mL (≈ 0.0362 µM) | > 100 µg/mL | 0.2 µg/mL (≈ 0.241 µM) | 0.02 µg/mL (≈ 0.0241 µM) | 0.1 µg/mL (≈ 0.121 µM) | 0.2 µg/mL (≈ 0.241 µM) | MIC [2]: 4 µg/mL (≈ 4.82 µM); MIC [19]: 0.2 µg/mL (≈ 0.241 µM); MIC [20]: 0.2 µg/mL (≈ 0.241 µM); MIC (Escherichia coli SS): 0.39 µg/mL (≈ 0.47 µM); MIC [21]: 0.1 µg/mL (≈ 0.121 µM); MIC [22]: 0.2 µg/mL (≈ 0.241 µM)
3 | CC[C@H]1OC(=O)[C@H](C)C(=O)[C@H](C)[C@@H](O[C@@H]2O[C@H](C)C[C@H](N(C)C)[C@H]2O)[C@](C)(OC/C=C/c2cncc(-c3cncc4ccccc34)c2)C[C@@H](C)C(=O)[C@H](C)[C@H]2NC(=O)O[C@@]21C [Example 48] | 16 µg/mL (≈ 19 µM) | > 100 µg/mL | 0.2 µg/mL (≈ 0.237 µM) | 0.25 µg/mL (≈ 0.297 µM) | > 100 µg/mL | 0.1 µg/mL (≈ 0.119 µM) | > 100 µg/mL | 0.2 µg/mL (≈ 0.237 µM) | 0.02 µg/mL (≈ 0.0237 µM) | 0.05 µg/mL (≈ 0.0593 µM) | 0.02 µg/mL (≈ 0.0237 µM) | > 100 µg/mL | ≤ 0.004 µg/mL | 0.2 µg/mL (≈ 0.237 µM) | ≤ 0.004 µg/mL | > 100 µg/mL | 0.2 µg/mL (≈ 0.237 µM) | 0.05 µg/mL (≈ 0.0593 µM) | 0.05 µg/mL (≈ 0.0593 µM) | 0.2 µg/mL (≈ 0.237 µM) | MIC [23]: 100 µg/mL (≈ 119 µM); MIC [19]: 0.2 µg/mL (≈ 0.237 µM); MIC [20]: 0.2 µg/mL (≈ 0.237 µM); MIC (Escherichia coli SS): 0.78 µg/mL (≈ 0.925 µM); MIC [21]: 0.05 µg/mL (≈ 0.0593 µM); MIC [22]: 0.78 µg/mL (≈ 0.925 µM)
